Measured values as given in patent US7163696B2, “Pharmaceutical formulations” (Pfizer Inc., priority 2001, dated 2007).

Legend:
[1] = Bioavailability testing by the applicants (unpublished); conditions: in vivo
[2] = Measurement of Papp values across Caco-2 cell monolayers (Example 15); assay type: in vitro ADME; conditions: human, initial concentration in donor (apical) chamber 25 μM, 37° C.
Excerpt: P Artursson and J Karlsson described the use of monolayers of Caco-2 cells to generate apparent permeability coefficients (Papp values) for drug absorption across the intestinal epithelium in ‘Correlation between oral drug absorption in humans and apparent drug permeability coefficients in human intestinal epithelial (Caco-2) cells’, Biochemical and Biophysical Research Communications, Vol 175 (3), pp 880–885, 1991.
Preferably, when measuring the Papp value, the initial concentration of test compound in the donor chamber is at a relevant therapeutic concentration, for example 25 μM.
Caco-2 cells originating from a human colon carcinoma were obtained from the ATCC (HTB-37) and were used between passage number 24–44. Cells were maintained in MEM with Earles salts containing 2 mM L-glutamine, 1 mM sodium pyruvate, 1% (v/v) MEM non-essential amino acids (Gibco) and 20% foetal calf serum (Sigma) at 37° C. in an atmosphere of 5% CO2 and 90% relative humidity. Falcon 24 well filter inserts (Becton Dickinson) were seeded with 4×10^4 cells/well. […]
Transport data across the Caco-2 cell monolayers is expressed as Papp values. Papp values are calculated according to the equation disclosed by Artursson and Karlsson as follows: Papp=(dQ/dt)(1/AC0), wherein dQ/dt is the permeability rate, Co the initial concentration in the donor chamber, and A the surface area of the monolayer.

Row | absorption from the colon [1] | Papp A→B at 2 h, 25 μM [2] [nm/s] | SMILES
1 | low, and highly variable |  | COc1cc2nc(N3CCc4c(cccc4NS(C)(=O)=O)C3)nc(N)c2c(-c2ccccn2)c1OC [4-amino-6,7-dimethoxy-2-(5-methanesulfonamido-1,2,3,4-tetrahydroisoquinol-2-yl)-5-(2-pyridyl)quinazoline]
2 |  | 110 | COc1cc2nc(N3CCc4c(cccc4NS(C)(=O)=O)C3)nc(N)c2c(-c2ccccn2)c1OC.CS(=O)(=O)O [4-amino-6,7-dimethoxy-2-(5-methanesulfonamido-1,2,3,4-tetrahydroisoquinol-2-yl)-5-(2-pyridyl)quinazoline mesylate]
